Results from patent US11746100B2 (GLOBAL BLOOD THERAPEUTICS, INC., priority 2020, dated 2023).

Biological target: T1, human ferroportin (Homo sapiens, UniProt Q9NP59)
T1 construct: luciferase reporter (read with the Nano-Glo Luciferase Assay System); expressed in transfected cells; host or cells: CHO cells, stably transfected, expression induced with doxycycline
T1 sequence (Q9NP59 1-571): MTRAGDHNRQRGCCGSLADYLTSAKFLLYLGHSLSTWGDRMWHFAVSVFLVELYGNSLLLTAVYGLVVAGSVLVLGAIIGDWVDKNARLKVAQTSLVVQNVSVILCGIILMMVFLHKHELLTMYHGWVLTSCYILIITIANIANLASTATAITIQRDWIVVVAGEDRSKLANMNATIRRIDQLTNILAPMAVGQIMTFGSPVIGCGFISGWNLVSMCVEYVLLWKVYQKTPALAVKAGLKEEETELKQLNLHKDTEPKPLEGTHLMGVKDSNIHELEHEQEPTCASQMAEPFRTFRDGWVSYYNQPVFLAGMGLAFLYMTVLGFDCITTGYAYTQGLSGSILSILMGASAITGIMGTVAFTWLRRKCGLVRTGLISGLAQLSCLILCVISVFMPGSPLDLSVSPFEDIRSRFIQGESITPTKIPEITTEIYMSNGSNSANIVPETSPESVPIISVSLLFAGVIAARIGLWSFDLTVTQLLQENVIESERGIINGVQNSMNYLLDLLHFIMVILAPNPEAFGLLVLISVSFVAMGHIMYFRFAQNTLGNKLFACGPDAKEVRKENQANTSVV
Assay: Biological in-vitro ferroportin internalization assay (luciferase reporter)
Type: cell-based
Conditions: average pEC50; stably-transfected CHO cell line expressing human ferroportin tagged to a luciferase reporter; 6 h incubation with test compound
Procedure, shortened: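 Read-out is Nano-Glo luciferase signal after 6 h compound exposure, with average pEC50 derived. Cells are a stable CHO line carrying luciferase-tagged human ferroportin, pre-loaded 24 h with ferric ammonium citrate and doxycycline-induced for 24 h.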

SMILES | pEC50
Cc1ccc(NC(=O)CN(C)c2nc(-c3cc(OCCO)ccn3)nc3c2CCC3)nn1 [Compound 286, 2-({2-[4-(2-hydroxyethoxy)pyridin-2-yl]-5H,6H,7H-cyclopenta[d]pyrimidin-4-yl}(methyl)amino)-N-(6-methylpyridazin-3-yl)acetamide] | 7.5
COc1ccnc(-c2nc3c(c(N(C)CC(=O)Nc4ccn(C)c(=O)c4)n2)CCC3)c1 [Compound 287, 2-{[2-(4-methoxypyridin-2-yl)-5H,6H,7H-cyclopenta[d]pyrimidin-4-yl](methyl)amino}-N-(1-methyl-2-oxo-1,2-dihydropyridin-4-yl)acetamide] | 7.2
CN(CC(=O)Nc1ccc(C(F)(F)F)nc1)c1nc(-c2cc3cn[nH]c3cn2)nc2c1CCC2 [Compound 288, 2-[methyl(2-{1H-pyrazolo[3,4-c]pyridin-5-yl}-5H,6H,7H-cyclopenta[d]pyrimidin-4-yl)amino]-N-[6-(trifluoromethyl)pyridin-3-yl]acetamide] | 7.1
CN(CC(=O)Nc1ccc(F)cc1)c1nc(-c2cc3cn[nH]c3cn2)nc2c1CCC2 [Compound 289, N-(4-fluorophenyl)-2-[methyl(2-{1H-pyrazolo[3,4-c]pyridin-5-yl}-5H,6H,7H-cyclopenta[d]pyrimidin-4-yl)amino]acetamide] | 7.5
COc1cnc(NC(=O)CN(C)c2nc(-c3cc(OCCO)ccn3)nc3c2CCC3)cn1 [Compound 290, 2-({2-[4-(2-hydroxyethoxy)pyridin-2-yl]-5H,6H,7H-cyclopenta[d]pyrimidin-4-yl}(methyl)amino)-N-(5-methoxypyrazin-2-yl)acetamide] | 7.6
Cc1ncc(NC(=O)CN(C)c2nc(-c3cc(OCCO)ccn3)nc3c2CCC3)cn1 [Compound 291, 2-({2-[4-(2-hydroxyethoxy)pyridin-2-yl]-5H,6H,7H-cyclopenta[d]pyrimidin-4-yl}(methyl)amino)-N-(2-methylpyrimidin-5-yl)acetamide] | 7.3
Cc1cccc(NC(=O)CN(C)c2nc(-c3cc(OCCO)ccn3)nc3c2CCC3)c1 [Compound 292, 2-({2-[4-(2-hydroxyethoxy)pyridin-2-yl]-5H,6H,7H-cyclopenta[d]pyrimidin-4-yl}(methyl)amino)-N-(3-methylphenyl)acetamide] | 8.1
CN(CC(=O)Nc1cccc(F)c1)c1nc(-c2cc(OCCN)ccn2)nc2c1CCC2 [Compound 293, 2-({2-[4-(2-aminoethoxy)pyridin-2-yl]-5H,6H,7H-cyclopenta[d]pyrimidin-4-yl}(methyl)amino)-N-(3-fluoropehnyl)acetamide] | 7.9
CN(C)CCOc1ccnc(-c2nc3c(c(N(C)CC(=O)Nc4cccc(F)c4)n2)CCC3)c1 [Compound 294, 2-[(2-{4-[2-(dimethylamino)ethoxy]pyridin-2-yl}-5H,6H,7H-cyclopenta[d]pyrimidin-4-yl)(methyl)amino]-N-(3-fluorophenyl)acetamide] | 7.9
COc1cnc(NC(=O)CN(C)c2nc(-c3cc(OCCO)ccn3)nc3c2CCC3)nc1 [Compound 295, 2-({2-[4-(2-hydroxyethoxy)pyridin-2-yl]-5H,6H,7H-cyclopenta[d]pyrimidin-4-yl}(methyl)amino)-N-(5-methoxypyrimidin-2-yl)acetamide] | 7
CN(CC(=O)Nc1cnn(C)c1)c1nc(-c2cc(OCCO)ccn2)nc2c1CCC2 [Compound 296, 2-({2-[4-(2-hydroxyethoxy)pyridin-2-yl]-5H,6H,7H-cyclopenta[d]pyrimidin-4-yl}(methyl)amino)-N-(1-methyl-1H-pyrazol-4-yl)acetamide] | 7.6
Cc1ccc(NC(=O)CN(C)c2nc(-c3cc4cc(CO)ccc4cn3)nc3c2CCC3)cn1 [Compound 297, 2-({2-[6-(hydroxymethyl)isoquinolin-3-yl]-5H,6H,7H-cyclopenta[d]pyrimidin-4-yl}(methyl)amino)-N-(6-methylpyridin-3-yl)acetamide] | 7.5
Cc1ccc(NC(=O)CN(C)c2nc(-c3ccc(F)cn3)nc3c2CCC3)cn1 [Compound 298, 2-{[2-(5-fluoropyridin-2-yl)-5H,6H,7H-cyclopenta[d]pyrimidin-4-yl](methyl)amino}-N-(6-methylpyridin-3-yl)acetamide] | 6.1
CN(CC(=O)NC(C)(C)C)c1nc(-c2ccc(F)cn2)nc2c1CCC2 [Compound 299, N-tert-butyl-2-{[2-(5-fluoropyridin-2-yl)-5H,6H,7H-cyclopenta[d]pyrimidin-4-yl](methyl)amino}acetamide] | 6.1
CN(CC(=O)NC(C)(C)C)c1nc(-c2ccc(Cl)cn2)nc2c1CCC2 [Compound 300, N-tert-butyl-2-{[2-(5-chloropyridin-2-yl)-5H,6H,7H-cyclopenta[d]pyrimidin-4-yl](methyl)amino}acetamide] | 6.2

Results, then the compound that gave them:

pEC50 | SMILES
6.9 | CN(CC(=O)NC(C)(C)C)c1nc(-c2cc3scnc3cn2)nc2c1CCC2 [Compound 301, N-tert-butyl-2-[methyl(2-{[1,3]thiazolo[4,5-c]pyridin-6-yl}-5H,6H,7H-cyclopenta[d]pyrimidin-4-yl)amino]acetamide]
7.9 | Cc1ccc(NC(=O)CN(C)c2nc(-c3cc(OCC(C)(C)O)ccn3)nc3c2CCC3)cn1 [Compound 302, 2-({2-[4-(2-hydroxy-2-methylpropoxy)pyridin-2-yl]-5H,6H,7H-cyclopenta[d]pyrimidin-4-yl}(methyl)amino)-N-(6-methylpyridin-3-yl)acetamide]
6.4 | Cc1cc(-c2nc3c(c(N(C)CC(=O)NC(C)(C)C)n2)CCC3)ncc1F [Compound 303, N-tert-butyl-2-{[2-(5-fluoro-4-methylpyridin-2-yl)-5H,6H,7H-cyclopenta[d]pyrimidin-4-yl](methyl)amino}acetamide]
6.8 | COc1ccc(NC(=O)CN(C)c2nc(-c3cc4scnc4cn3)nc3c2CCC3)cn1 [Compound 304, N-(6-methoxypyridin-3-yl)-2-[methyl(2-{[1,3]thiazolo[4,5-c]pyridin-6-yl}-5H,6H,7H-cyclopenta[d]pyrimidin-4-yl)amino]acetamide]
7.8 | C[C@H](C(=O)NC(C)(C)C)N(C)c1nc(-c2cc(OC3COC3)ccn2)nc2c1CCC2 [Compound 305]
6.6 | COc1cc(-c2nc3c(c(N(C)CC(=O)Nc4ccc(C)nc4)n2)CCC3)ncc1F [Compound 306, 2-{[2-(5-fluoro-4-methoxypyridin-2-yl)-5H,6H,7H-cyclopenta[d]pyrimidin-4-yl](methyl)amino}-N-(6-methylpyridin-3-yl)acetamide]
7.4 | CN(CC(=O)Nc1cccc(F)c1)c1nc(-c2cc(OCC3(O)CC3)ccn2)nc2c1CCC2 [Compound 307, N-(3-fluorophenyl)-2-[(2-{4-[(1-hydroxycyclopropyl)methoxy]pyri-din-2-yl}-5H,6H,7H-cyclopenta[d]pyrimidin-4-yl)(methyl)amino]acetamide]
8.1 | CN(CC(=O)Nc1ccc(C2CC2)nc1)c1nc(-c2cc(OCCO)ccn2)nc2c1CCC2 [Compound 308, N-(6-cyclopropylpyridin-3-yl)-2-({2-[4-(2-hydroxyethoxy)pyridin-2-yl]-5H,6H,7H-cyclopenta[d]pyrimidin-4-yl}(methyl)amino)acetamide]
8.1 | COc1ccc(NC(=O)[C@@H](C)N(C)c2nc(-c3cc(OCCO)ccn3)nc3c2CCC3)cn1 [Compound 309, (2R)-2-({2-[4-(2-hydroxyethoxy)pyridin-2-yl]-5H,6H,7H-cyclopenta[d]pyrimidin-4-yl}(methyl)amino)-N-(6-methoxypyridin-3-yl)propanamide]
7.4 | C[C@H](C(=O)Nc1cnn(C)c1)N(C)c1nc(-c2cc(OCCO)ccn2)nc2c1CCC2 [Compound 310, (2R)-2-({2-[4-(2-hydroxyethoxy)pyridin-2-yl]-5H,6H,7H-cyclopenta[d]pyrimidin-4-yl}(methyl)amino)-N-(1-methyl-1H-pyrazol-4-yl)propanamide]
8.4 | C[C@H](C(=O)NC(C)(C)C)N(C)c1nc(-c2cc(OCCO)ccn2)nc2c1CCC2 [Compound 311, (2R)-N-tert-butyl-2-({2-[4-(2-hydroxyethoxy)pyridin-2-yl]-5H,6H,7H-cyclopenta[d]pyrimidin-4-yl}(methyl)amino)propanamide]
7.7 | COc1ccc(NC(=O)[C@@H](C)N(C)c2nc(-c3cc(OC4COC4)ccn3)nc3c2CCC3)cn1 [Compound 312, (2R)-N-(6-methoxypyridin-3-yl)-2-[methyl({2-[4-(oxetan-3-yloxy)pyridin-2-yl]-5H,6H,7H-cyclopenta[d]pyrimidin-4-yl})amino]propanamide]
7.3 | CN(CC(=O)Nc1ccc(F)cc1)c1nc(-c2cc3cnn(C)c3cn2)nc2c1CCC2 [Compound 313, N-(4-fluorophenyl)-2-[methyl(2-{1-methyl-1H-pyrazolo[3,4-c]pyridin-5-yl}-5H,6H,7H-cyclopenta[d]pyrimidin-4-yl)amino]acetamide]
7.6 | CN(CC(=O)Nc1ccc(F)cc1)c1nc(-c2cc3cn(C)nc3cn2)nc2c1CCC2 [Compound 314, N-(4-fluorophenyl)-2-[methyl(2-{2-methyl-2H-pyrazolo[3,4-c]pyridin-5-yl}-5H,6H,7H-cyclopenta[d]pyrimidin-4-yl)amino]acetamide]
